Results published in PubChem BioAssay (NCI).
Values joined by “and” are separate entries in the source; they are usually repeats but may differ in a detail not shown here. Identical values can stand only once.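 These data come from cells grown in 96-well plates and exposed to compound for 48 hours at five concentrations. The concentration for 50% growth inhibition is given as GI50. Definition used: TGI = concentration required for complete inhibition of growth.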

Key:
Experiment in all cases: inhibition of tumour cell growth, NCI panel, 48 h
A549 NSCLC = system: A549 NSCLC
OVCAR-4 ovarian = system: OVCAR-4 ovarian
SF-539 CNS = system: SF-539 CNS
HOP-62 NSCLC = system: HOP-62 NSCLC
RPMI-8226 leukemia = system: RPMI-8226 leukemia
K-562 leukemia = system: K-562 leukemia
LOX IMVI melanoma = system: LOX IMVI melanoma
NCI/ADR-RES ovarian = system: NCI/ADR-RES ovarian
NCI-H226 lung = system: NCI-H226 lung
UO-31 renal = system: UO-31 renal
PC-3 prostate = system: PC-3 prostate
A498 renal = system: A498 renal

SMILES | TGI (A549 NSCLC) [µM] | TGI (OVCAR-4 ovarian) [µM] | TGI (SF-539 CNS) [µM] | TGI (HOP-62 NSCLC) [µM] | TGI (RPMI-8226 leukemia) [µM] | TGI (K-562 leukemia) [µM] | TGI (LOX IMVI melanoma) [µM] | TGI (NCI/ADR-RES ovarian) [µM] | TGI (NCI-H226 lung) | TGI (UO-31 renal) [µM] | TGI (PC-3 prostate) [µM] | TGI (A498 renal) [µM] | GI50 (OVCAR-4 ovarian) | GI50 (NCI/ADR-RES ovarian) | GI50 (UO-31 renal) | GI50 (A498 renal) [µM]
CC(C)=CCC/C(C)=C/Cc1cc(/C=C/c2cc(O)c(CC=C(C)C)c(O)c2)cc(O)c1O | 17.5 | 7.1 | 13.8 | 24.4 | 3.68 | 10.4 | 7 | 13.3 | 23 µM | 2.89 | 11.9 | 20.6 |  |  |  | 
CCOC(=O)[C@H]1C[C@@H](C(=O)c2ccccc2)N2N=C(c3ccc(Br)cc3)C=C[C@H]12 | > 100 | > 100 |  | > 100 | > 100 | > 100 | > 100 | > 100 | > 100 µM | > 100 | > 100 | > 100 |  |  |  | 
CSc1nc(=S)[nH]c2n[nH]c(C)c12 | > 100 | > 100 | > 100 |  | > 100 | > 100 | > 100 | > 100 | > 100 µM | > 100 | > 100 | > 100 |  |  |  | 
N[C@@H]1C[C@H](N)c2c(Cl)sc(Cl)c21 | > 100 | > 100 | > 100 | > 100 | > 100 | > 100 | > 100 | > 100 | > 100 µM | > 100 | > 100 | > 100 |  |  |  | 
NN/C(=N\S(=O)(=O)c1cc(Cl)c(Oc2ccc([N+](=O)[O-])cc2Cl)c(Cl)c1)Nc1ccc(Cl)cc1 | 41.8 | 57.1 | 31.3 | 41 | > 100 | > 100 | 45 | 67.9 | 33.4 µM | 32.3 | 81.6 | 64.4 |  |  |  | 
CCC(=O)N(c1ccccc1)C(C)CN1CCC(O)(c2ccccc2)CC1 (stereo not drawn) | > 100 | > 100 | > 100 | > 100 | > 100 | > 100 | > 100 | > 100 | > 100 µM | > 100 | > 100 | > 100 |  |  |  | 
CCOC(=O)CCc1c(C(=O)OCC)[nH]c(/C=C2/NC(=O)C(C)=C2CC)c1C | > 100 | 8.91 | 44.4 | 29.8 |  | 12.9 | 21 | 36.9 | 48.2 µM | 10.5 | > 100 | 77.6 |  |  |  | 
Cc1ccc(-c2c(C#N)c(-c3ccc(N(C)C)cc3)c(C#N)c(=O)n2NS(=O)(=O)c2ccccc2)cc1 | > 100 | > 100 | 83.4 | > 100 | 33.2 | > 100 | > 100 | > 100 | > 100 µM |  | > 100 | > 100 |  |  |  | 
O=c1cc(-c2ccc(O)c(O)c2)oc2cc(OC3OC(CO)C(O)C(O)C3O)cc(O)c12 (stereo not drawn) | > 100 | > 100 | > 100 | > 100 | > 100 |  | > 100 | > 100 | > 100 µM | > 100 | > 100 | > 100 |  |  |  | 
Cc1sc2ncnc(NCCc3ccccc3)c2c1C | 83 | 59 | 31.2 | 33.8 | 42.8 | 63.1 | 22.4 | > 100 | 42.3 µM | 38.8 | 40.3 | 29 |  |  |  | 
COC(=O)n1c(=O)nc2c3c(ncn21)Oc1c(c(-c2ccccc2)nn1-c1ccccc1)C3c1ccc(Cl)cc1 (stereo not drawn) | 3.15 | 4.66 | 3.14 | 3.09 | 4.07 | 3.37 | 2.79 | 2.77 | 3.42 µM | 3.28 | 2.94 | 5.02 |  |  |  | 
CN(C)c1ccc(C(C#N)N2CCCN(C(C#N)c3ccc(N(C)C)cc3)C2c2ccc(N(C)C)cc2)cc1 (stereo not drawn) | > 100 | > 100 | > 100 | > 100 | > 100 | > 100 | > 100 | > 100 | > 100 µM | > 100 | > 100 | > 100 |  |  |  | 
O=C(CNC(=O)OCc1ccccc1)NCCCCC(NC(=O)OCc1ccccc1)C(=O)O (stereo not drawn) | > 100 | > 100 | > 100 | > 100 | > 100 | > 100 | > 100 | > 100 | > 100 µM | > 100 | > 100 | > 100 |  |  |  | 
CC(=NNC(=S)Nc1ccccc1C)c1cccc(C(C)=NNC(=S)Nc2ccccc2C)n1 | > 100 | 91.7 | > 100 | > 100 | > 100 | > 100 | > 100 | > 100 | > 100 µM | > 100 | > 100 | > 100 |  |  |  | 
CCOc1ccc(C2c3[nH]c4ccccc4c3CCN2C(=O)c2cccs2)cc1 (stereo not drawn) | > 100 | > 100 | > 100 | > 100 | > 100 | > 100 | > 100 | > 100 | 43.4 µM | > 100 | > 100 | > 100 |  |  |  | 
CN1CC=C(OP(=O)(NCc2ccccc2)N(CCCl)CCCl)CC1 (stereo not drawn) |  | > 100 | > 100 | > 100 | > 100 | > 100 | > 100 | > 100 | > 100 µM | > 100 | > 100 | > 100 |  |  |  | 
COC(=O)/C=C/c1cc(OC)c2c(c1)C(C(=O)OC)C(c1ccc(OC)c(OC)c1)O2 (stereo not drawn) | > 100 | > 100 |  | > 100 | > 100 | > 100 | > 100 | > 100 | > 100 µM and 25.6 µM | > 100 | > 100 | > 100 | 45.9 µM and 8.71 µM | 43.3 µM and 4.9 µM | 32.1 µM and 8.62 µM | 64.1
O=C(/C=C/c1ccc(O)c(O)c1)NC(CO)C(=O)O (stereo not drawn) | > 100 | > 100 | > 100 | > 100 | > 100 | > 100 | > 100 | 64.6 | > 100 µM | > 100 | > 100 | > 100 |  |  |  | 
